Like-named read-outs stand apart in the source and are kept apart here. Bounds are passed on as bounds.

For data set [1] the following is noted: other bond.
Data set [2] deals with CDK1-CYCLIN B (Homo sapiens, UniProt P06493). Nature of the data set: CDK protein kinase inhibition by ADP-Glo assay, CDK1-CYCLIN B. The class given is biochemical. The settings on record: ADP-Glo, 1000 μM ATP, read-out: CDK1-CYCLINB, IC50. Summed up: (§1)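 Compounds were incubated at 22° C with the CDK/cyclin complex, peptide substrate, 1000 μM ATP and 5 mM MgCl2. The reaction was then quenched and ADP formation quantified by luminescence using ADP-Glo reagents.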
Chain of CDK1-CYCLIN B (P06493 whole entry): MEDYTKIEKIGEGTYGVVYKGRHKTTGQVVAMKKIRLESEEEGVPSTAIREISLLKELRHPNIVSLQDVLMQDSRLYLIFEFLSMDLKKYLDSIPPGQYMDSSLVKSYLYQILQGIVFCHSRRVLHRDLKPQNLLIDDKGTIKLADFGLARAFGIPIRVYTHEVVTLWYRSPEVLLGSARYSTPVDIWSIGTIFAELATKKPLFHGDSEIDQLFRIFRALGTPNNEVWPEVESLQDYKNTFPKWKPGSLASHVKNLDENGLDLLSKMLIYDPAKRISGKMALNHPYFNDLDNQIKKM
Chain of CDK1-CYCLIN B (P14635 whole entry partner): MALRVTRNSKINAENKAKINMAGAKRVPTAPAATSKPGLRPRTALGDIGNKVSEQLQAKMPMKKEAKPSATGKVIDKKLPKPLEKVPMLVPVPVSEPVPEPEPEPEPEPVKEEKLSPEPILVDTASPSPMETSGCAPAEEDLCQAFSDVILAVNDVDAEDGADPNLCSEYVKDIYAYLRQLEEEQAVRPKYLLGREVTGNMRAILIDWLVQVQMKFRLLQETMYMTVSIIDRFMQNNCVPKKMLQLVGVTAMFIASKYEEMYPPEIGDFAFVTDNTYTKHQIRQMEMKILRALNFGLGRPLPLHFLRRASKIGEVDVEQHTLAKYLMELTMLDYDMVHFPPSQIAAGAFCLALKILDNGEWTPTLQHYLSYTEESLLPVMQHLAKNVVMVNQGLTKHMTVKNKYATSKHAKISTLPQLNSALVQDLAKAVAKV
(In ADP-Glo the light output rises with the ADP produced.)

The target in data set [3] is CDK2-CYCLIN E1 (Homo sapiens, UniProt P24941). Nature of the data set: CDK protein kinase inhibition by ADP-Glo assay, CDK2-CYCLIN E1. As to conditions: ADP-Glo, 1000 μM ATP, read-out: CDK2-CYCLINE, IC50. It is filed as biochemical. In a few lines:
as §1

In data set [4] the target is CDK4-CYCLIN D1 (Homo sapiens, UniProt P11802). Nature of the data set: CDK protein kinase inhibition by ADP-Glo assay, CDK4-CYCLIN D1. It is filed as biochemical. As to conditions: ADP-Glo, 1000 μM ATP, read-out: CDK4-CYCLIND1, IC50. In a few lines: as §1
Chain of CDK4-CYCLIN D1 (P11802 whole entry): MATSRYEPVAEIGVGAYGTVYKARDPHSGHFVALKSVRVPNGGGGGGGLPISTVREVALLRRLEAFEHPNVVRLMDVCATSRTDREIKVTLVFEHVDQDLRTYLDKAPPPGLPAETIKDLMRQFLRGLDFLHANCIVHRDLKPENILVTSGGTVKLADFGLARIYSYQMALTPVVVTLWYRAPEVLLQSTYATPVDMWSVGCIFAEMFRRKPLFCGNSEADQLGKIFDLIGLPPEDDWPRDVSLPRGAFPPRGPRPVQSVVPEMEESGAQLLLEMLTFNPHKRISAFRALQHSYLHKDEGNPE
Chain of CDK4-CYCLIN D1 (P24385 whole entry partner): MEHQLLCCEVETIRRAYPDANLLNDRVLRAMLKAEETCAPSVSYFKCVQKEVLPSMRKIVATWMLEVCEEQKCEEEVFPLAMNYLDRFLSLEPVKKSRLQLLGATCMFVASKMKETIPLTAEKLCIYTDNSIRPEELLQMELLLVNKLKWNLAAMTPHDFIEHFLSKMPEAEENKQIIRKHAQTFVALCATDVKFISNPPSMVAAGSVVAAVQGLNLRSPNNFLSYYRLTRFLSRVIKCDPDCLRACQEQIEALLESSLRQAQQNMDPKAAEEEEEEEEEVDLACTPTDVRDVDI
For data set [5], the target named is CDK6-CYCLIN D3 (Homo sapiens, UniProt Q00534). Nature of the data set: CDK protein kinase inhibition by ADP-Glo assay, CDK6-CYCLIN D3. It is filed as biochemical. As to conditions: ADP-Glo, 1000 μM ATP, read-out: CDK6-CYCLIND3, IC50. Summed up:
as §1

The target in data set [6] is CDK9-CYCLIN T1 (Homo sapiens, UniProt P50750). Nature of the data set: CDK protein kinase inhibition by ADP-Glo assay, CDK9-CYCLIN T1. It is filed as biochemical. As to conditions: ADP-Glo, 1000 μM ATP, read-out: CDK9-CYCLINT1, IC50. Summed up:
as §1

The test system of data set [7] is Phospho-Rb (Ser807/811) in OVCAR3 cells. Nature of the data set: Phospho-Rb expression inhibition in OVCAR3 cells quantified by In Cell Western. The class given is cell-based. As to conditions: Homo sapiens, OVCAR-3, 24 hours, read-out: OVCAR-3 pRb IC50. Summed up:
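In-cell western: after 24 h compound exposure at 37° C, fixed OVCAR3 cells co-stained for pRb Ser807/811 (800 nm channel) and total Rb (680 nm channel), imaged by LI-COR Odyssey.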

Data set [8] has as its system CCNE1-amplified OVCAR3 cells. Nature of the data set: Cell growth inhibition of CCNE1-amplified OVCAR3 cells (CellTiter-Glo). It is filed as cell-based. The settings on record: Homo sapiens, OVCAR-3, 144 h, 6 days. Summed up: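 Growth read-out was CellTiter-Glo luminescence, taken after 10 min at room temperature at the end of a 6-day compound exposure at 37 °C. Compounds were diluted from DMSO stocks across various concentrations.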
Background: ATP-based viability assays read luminescence as a measure of living cells.

The subject of data set [9] is CCNE1-normal SKOV3 cells. Nature of the data set: Cell growth inhibition of CCNE1-normal SKOV3 cells (CellTiter-Glo). The class given is cell-based. The settings on record: Homo sapiens, SK-OV-3, 144 h, 6 days. In a few lines: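 Growth was measured by CellTiter-Glo luminescence after 6 days' compound exposure at 37 °C. Cells were plated one day before dosing at 1000 per well in medium with 10% FBS, and compounds were diluted from DMSO stocks.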

Chain of CDK6-CYCLIN D3 (Q00534 whole entry): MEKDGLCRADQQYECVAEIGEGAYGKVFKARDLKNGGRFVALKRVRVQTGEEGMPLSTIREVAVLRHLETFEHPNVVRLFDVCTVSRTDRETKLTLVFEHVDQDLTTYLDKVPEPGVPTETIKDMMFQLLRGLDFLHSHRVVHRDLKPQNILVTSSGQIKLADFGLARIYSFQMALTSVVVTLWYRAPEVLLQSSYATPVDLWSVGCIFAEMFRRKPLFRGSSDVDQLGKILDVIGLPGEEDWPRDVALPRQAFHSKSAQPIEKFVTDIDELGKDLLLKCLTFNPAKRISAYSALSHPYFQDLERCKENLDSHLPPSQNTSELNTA
Chain of CDK6-CYCLIN D3 (P30281 whole entry partner): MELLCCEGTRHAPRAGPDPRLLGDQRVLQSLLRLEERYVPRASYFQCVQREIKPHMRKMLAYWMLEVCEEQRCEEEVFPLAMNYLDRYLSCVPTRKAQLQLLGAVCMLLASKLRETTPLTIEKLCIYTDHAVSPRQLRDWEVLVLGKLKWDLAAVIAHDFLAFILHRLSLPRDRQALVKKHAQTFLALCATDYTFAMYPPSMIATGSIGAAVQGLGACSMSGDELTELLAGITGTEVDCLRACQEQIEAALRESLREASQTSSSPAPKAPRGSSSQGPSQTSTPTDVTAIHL
Chain of CDK9-CYCLIN T1 (P50750 whole entry): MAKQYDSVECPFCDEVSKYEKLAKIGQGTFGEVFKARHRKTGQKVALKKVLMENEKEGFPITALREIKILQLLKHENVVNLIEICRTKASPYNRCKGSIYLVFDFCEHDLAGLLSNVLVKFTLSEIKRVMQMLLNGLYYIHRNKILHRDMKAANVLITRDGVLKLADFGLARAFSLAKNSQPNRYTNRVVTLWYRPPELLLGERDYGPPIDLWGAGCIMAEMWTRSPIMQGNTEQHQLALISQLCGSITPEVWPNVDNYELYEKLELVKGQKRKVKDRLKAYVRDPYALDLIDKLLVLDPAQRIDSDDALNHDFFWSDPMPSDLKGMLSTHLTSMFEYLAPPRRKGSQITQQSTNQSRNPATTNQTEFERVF
Chain of CDK9-CYCLIN T1 (O60563 whole entry partner): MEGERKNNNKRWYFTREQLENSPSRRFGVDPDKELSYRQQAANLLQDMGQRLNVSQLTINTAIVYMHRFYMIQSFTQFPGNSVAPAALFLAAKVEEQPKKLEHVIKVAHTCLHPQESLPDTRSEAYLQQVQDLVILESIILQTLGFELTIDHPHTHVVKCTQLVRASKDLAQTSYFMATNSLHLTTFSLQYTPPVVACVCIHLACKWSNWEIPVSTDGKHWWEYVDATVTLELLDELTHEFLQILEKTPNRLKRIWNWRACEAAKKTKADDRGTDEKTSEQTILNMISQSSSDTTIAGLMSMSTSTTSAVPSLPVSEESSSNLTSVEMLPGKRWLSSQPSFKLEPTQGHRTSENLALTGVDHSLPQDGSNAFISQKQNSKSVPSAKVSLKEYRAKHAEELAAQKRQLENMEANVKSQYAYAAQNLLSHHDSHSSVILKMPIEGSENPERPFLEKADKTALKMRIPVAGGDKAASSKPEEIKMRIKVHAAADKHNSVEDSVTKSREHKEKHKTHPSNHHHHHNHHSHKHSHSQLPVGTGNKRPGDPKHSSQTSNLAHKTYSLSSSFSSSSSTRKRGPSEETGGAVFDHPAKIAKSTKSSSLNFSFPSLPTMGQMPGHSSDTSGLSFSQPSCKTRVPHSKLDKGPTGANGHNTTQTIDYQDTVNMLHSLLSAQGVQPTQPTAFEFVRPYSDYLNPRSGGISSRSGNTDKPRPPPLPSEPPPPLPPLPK

For `CC(C)(C)n1nc2cc1Nc1cc(nc(C(F)F)c1)CCCCCNC(=O)O[C@@H]1CC[C@H]2C1`, the ring closure, yield of all isomers in data set [1] (from CC(C)(C)n1nc([C@H]2CC[C@@H](OC(=O)Oc3ccc([N+](=O)[O-])cc3)C2)cc1Nc1cc(CCCCCN)nc(C(F)F)c1, DIPEA, THF, 3.27 mM, 30.0 °C, 12.0 h) came to 44.1%.
In turn, `CC(C)(C)n1nc2cc1Nc1cc(nc(C(F)F)c1)OCCCCNC(=O)O[C@@H]1CC[C@H]2C1` displayed a ring closure, yield of all isomers in [1] (from CC(C)(C)n1nc([C@H]2CC[C@@H](OC(=O)Oc3ccc([N+](=O)[O-])cc3)C2)cc1Nc1cc(OCCCCN)nc(C(F)F)c1, DIEA, THF, 1.11 mM, 25.0 °C, 12.0 h) of 65%.
For `CC(C)(C)n1nc2cc1Nc1ccnc(c1)C(F)(F)C[C@H]1C[C@@H](C1)NC(=O)O[C@@H]1CC[C@H]2C1`, the ring closure, yield of all isomers in data set [1] (from CC(C)(C)n1nc([C@H]2CC[C@@H](OC(=O)Oc3ccc([N+](=O)[O-])cc3)C2)cc1Nc1ccnc(C(F)(F)C[C@H]2C[C@H](N)C2)c1, DIEA, THF, 3.33 mM, 25.0 °C, 12.0 h) was determined as 99.9%.
Consider `CC(C)(C)n1nc2cc1Nc1ccnc(c1)CCCCCNC(=O)O[C@@H]1CC[C@H]2C1`, for which the ring closure, yield of all isomers in [1] (from CC(C)(C)n1nc([C@H]2CC[C@@H](OC(=O)Oc3ccc([N+](=O)[O-])cc3)C2)cc1Nc1ccnc(CCCCCN)c1, DIPEA, THF, 2.0 mM, 30.0 °C, 3.0 h) is 85%.
Regarding `CC(C)(C)n1nc2cc1Nc1ccnc(c1)OC[C@H]1C[C@@H](C1)NC(=O)O[C@@H]1CC[C@H]2C1`, the ring closure, yield of all isomers in [1] (from CC(C)(C)n1nc([C@H]2CC[C@@H](OC(=O)Oc3ccc([N+](=O)[O-])cc3)C2)cc1Nc1ccnc(OC[C@H]2C[C@H](N)C2)c1, DIEA, THF, 1.21 mM, 70.0 °C, 12.0 h) came out at 96.7%.
Take `CC(C)(C)n1nc2cc1Nc1ccnc(c1)OC[C@H]1C[C@@H](C1)NC(=O)O[C@H]1C[C@@H]2C[C@H]1F`: in data set [1] (from CC(C)(C)n1nc([C@H]2C[C@@H](F)[C@@H](OC(=O)Oc3ccc([N+](=O)[O-])cc3)C2)cc1Nc1ccnc(OC[C@H]2C[C@H](N)C2)c1, DIEA, THF, 1.7 mM, 60.0 °C, 12.0 h), the ring closure, yield of all isomers stood at 37%.
In data set [1] (from CC(C)(C)n1nc([C@H]2CC[C@@H](OC(=O)Oc3ccc([N+](=O)[O-])cc3)C2)cc1Nc1cncc(OCCCCN)c1, DIPEA, THF, 2.01 mM, 25.0 °C, 12.0 h, 2 steps), `CC(C)(C)n1nc2cc1Nc1cncc(c1)OCCCCNC(=O)O[C@@H]1CC[C@H]2C1` displayed a ring closure, yield of all isomers of 49.3%.
In turn, `CC(C)(C)n1nc2cc1Nc1cncc(n1)OC[C@H]1C[C@@H](C1)NC(=O)O[C@@H]1CC[C@H]2C1` gave a ring closure, yield of all isomers in data set [1] (from CC(C)(C)n1nc([C@H]2CC[C@@H](OC(=O)Oc3ccc([N+](=O)[O-])cc3)C2)cc1Nc1cncc(OC[C@H]2C[C@H](N)C2)n1, DIEA, DMSO, 2.3 mM, 100.0 °C, 12.0 h) of 38%.
Compound `CC1(C)CCCOc2cc(ccn2)Nc2cc(nn2C(C)(C)C)[C@H]2CC[C@H](C2)OC(=O)N1` had a ring closure, yield of all isomers in [1] (from CC(C)(N)CCCOc1cc(Nc2cc([C@H]3CC[C@@H](OC(=O)Oc4ccc([N+](=O)[O-])cc4)C3)nn2C(C)(C)C)ccn1, DIPEA, DMAP, THF, 1.82 mM, 50.0 °C, 39.0 h) of 88.8%.
`CC1CC23CC(C2)(C3)NC(=O)O[C@@H]2CC[C@@H](C2)c2cc(n(C(C)(C)C)n2)Nc2cc(nc(C(F)F)c2)O1` (stereo partly drawn) displayed a ring closure, yield of all isomers in data set [1] (from CC(CC12CC(N)(C1)C2)Oc1cc(Nc2cc([C@H]3CC[C@@H](OC(=O)Oc4ccc([N+](=O)[O-])cc4)C3)nn2C(C)(C)C)cc(C(F)F)n1, DIEA, THF, 9.15 mM, 80.0 °C, 2.0 h) of 84.7%.
In [1] (from CC(N)CCCOc1cc(Nc2cc([C@H]3CC[C@@H](OC(=O)Oc4ccc([N+](=O)[O-])cc4)C3)nn2C(C)(C)C)ccn1, DIPEA, THF, 2.06 mM, 30.0 °C, 24.0 h), `CC1CCCOc2cc(ccn2)Nc2cc(nn2C(C)(C)C)[C@H]2CC[C@H](C2)OC(=O)N1` (stereo partly drawn) had a ring closure, yield of all isomers of 98.5%.
Regarding `CC1OCCCNC(=O)O[C@@H]2CC[C@@H](C2)c2cc(n(C(C)(C)C)n2)Nc2ccnc1c2` (stereo partly drawn), the ring closure, yield of all isomers in data set [1] (from CC(OCCCN)c1cc(Nc2cc([C@H]3CC[C@@H](OC(=O)Oc4ccc([N+](=O)[O-])cc4)C3)nn2C(C)(C)C)ccn1, DIEA, THF, 6.34 mM, 100.0 °C, 3.0 h) was determined as 87.5%.
On to `C[C@@H]1CC/C=C/c2cc(ccn2)Nc2cc(nn2C(C)(C)C)[C@H]2CC[C@H](C2)OC(=O)N1`, for which, in [1] (from C[C@@H](N)CC/C=C/c1cc(Nc2cc([C@H]3CC[C@@H](OC(=O)Oc4ccc([N+](=O)[O-])cc4)C3)nn2C(C)(C)C)ccn1, DIEA, THF, 1.46 mM, 70.0 °C, 12.0 h), the ring closure, yield of all isomers turned out to be 98.6%.
What is called IC50 is the concentration needed to halve the response being measured. For the compound `C[C@@H]1Oc2cc(ccn2)Nc2cc(n[nH]2)[C@H]2CC[C@H](C2)OC(=O)N[C@H]2C[C@H]1C2` [compound 146], the half-inhibitory concentration (IC50) is 100 to 500 nM in data set [2] (Table 21); not above 10 nM in [3] (Table 21); more than 500 nM in data set [4] (Table 21); 100 to 500 nM in [5] (Table 21); more than 500 nM in data set [6] (Table 21); 10 to 50 nM in data set [7]. In addition, the values for the IC50 in [8] and in [9] were 10 to 50 nM and 250 to 1250 nM, respectively.
With `C[C@H]1CCO[C@H](C)c2cc(ccn2)Nc2cc(n[nH]2)[C@H]2CC[C@H](C2)OC(=O)N1` [compound 158], the IC50 in [2] (Table 23) is 100 to 500 nM; in [3] (Table 23) it was 10 to 50 nM; in data set [4] (Table 23) it was 100 to 500 nM; in data set [5] (Table 23), more than 500 nM; in data set [6] (Table 23) it was more than 500 nM; in data set [7], 10 to 50 nM. For the same compound, the IC50 fell in the range of 10 to 50 nM in data set [8] and 250 to 1250 nM in data set [9].
As for `C[C@@H]1OCC[C@H](C)NC(=O)O[C@@H]2CC[C@@H](C2)c2cc([nH]n2)Nc2ccnc1c2` [compound 159], the IC50 was 10 to 50 nM in data set [2] (Table 23); not above 10 nM in [3] (Table 23); 10 to 50 nM in data set [4] (Table 23); 50 to 100 nM in data set [5] (Table 23); 50 to 100 nM in data set [6] (Table 23); 2 to 10 nM in [7]. For the same compound, the half-inhibitory concentration (IC50) in data set [8] fell in the range of 2 to 10 nM; in data set [9], 50 to 250 nM.
On to `C[C@H]1CC[C@H](C)Oc2cc(ccn2)Nc2cc(n[nH]2)[C@H]2CC[C@H](C2)OC(=O)N1` [compound 162], for which the half-inhibitory concentration (IC50) in data set [2] (Table 21) is 10 to 50 nM; in data set [3] (Table 21) it was not above 10 nM; in data set [4] (Table 21) it was 100 to 500 nM; in data set [5] (Table 21), 100 to 500 nM; in data set [6] (Table 21), 100 to 500 nM; in data set [7] it was 2 to 10 nM. Further, the half-inhibitory concentration (IC50) in data set [8] was in the range of 10 to 50 nM; in data set [9] it was 250 to 1250 nM.
In the case of `C[C@@H]1CC[C@H](C)Oc2cc(ccn2)Nc2cc(n[nH]2)[C@H]2CC[C@H](C2)OC(=O)N1` [compound 163], the 50% inhibitory concentration (IC50) in data set [2] (Table 23) is 50 to 100 nM; in data set [3] (Table 23), not above 10 nM; in [4] (Table 23) it was 100 to 500 nM; in data set [5] (Table 23), 100 to 500 nM; in data set [6] (Table 23), 100 to 500 nM; in [7] it was 10 to 50 nM. For the same compound, the values for the IC50 in data set [8] and in [9] were 10 to 50 nM and 250 to 1250 nM, respectively.
Consider `C[C@@H]1NC(=O)O[C@@H]2CC[C@@H](C2)c2cc([nH]n2)Nc2ccnc(c2)COCC1(F)F` [compound 164], for which the IC50 in data set [2] (Table 31) is not above 10 nM; in [3] (Table 31), not above 10 nM; in data set [4] (Table 31) it was not above 10 nM; in [5] (Table 31), 10 to 50 nM; in [6] (Table 31), not above 10 nM; in data set [7], not above 2 nM. The IC50 was not above 2 nM in [8] and 10 to 50 nM in [9].
Turning to `C[C@H]1NC(=O)O[C@@H]2CC[C@@H](C2)c2cc([nH]n2)Nc2ccnc(c2)COCC1(F)F` [compound 165], the half-inhibitory concentration (IC50) is 10 to 50 nM in data set [2] (Table 31); 10 to 50 nM in [3] (Table 31); 10 to 50 nM in data set [4] (Table 31); 10 to 50 nM in data set [5] (Table 31); 50 to 100 nM in [6] (Table 31); 2 to 10 nM in data set [7]. The half-inhibitory concentration (IC50) was in the range of 10 to 50 nM in data set [8] and 50 to 250 nM in data set [9].

Source of the values: US20240317777A1, “NOVEL MACROCYCLIC AMINOPYRAZOLE COMPOUNDS AS CDK2 INHIBITORS” (Accutar Biotechnology Inc., priority 2023, published 2024).
